In ChEMBL document CHEMBL5137061, “Design and Measurement of Drug Tissue Concentration Asymmetry and Tissue Exposure-Effect (Tissue PK-PD) Evaluation” (J Med Chem, 2022):

How the values were obtained:
[1] = Tmax in BALBnu/CrlCrlj mouse at 0.1 to 1 mg/kg, po measured for 1 to 24 hrs; type: ADME, organism-based; details: in vivo, dose lower 0.1 mg/kg, time lower 1 hrs, dose upper 1 mg/kg, time upper 24 hrs
[2] = Tmax in BALBnu/CrlCrlj mouse xenografted with human KM12 cell tumor at 0.06 to 0.6 mg/kg, po measured after 48 hrs; type: ADME, organism-based; details: in vivo, dose 0.06-0.6 mg/kg

CS(=O)(=O)c1ccc(C(F)(F)F)cc1NC(=O)Nc1cnc(Oc2ccc(-c3cc(Cl)cnc3N)cc2)nc1 [ONO-7579]
Tmax [1]: 2 h
Tmax [2]: 7 h
